Experimental findings from patent publication US11091482B2, “Isoxazolyl-carbonyloxy azabicyclo[3.2.1]octanyl compounds as FXR activators” (ARDELYX, INC., priority 2016, dated 2021) are described below.

The target in test [1] is ligand binding domain of human FXR (Homo sapiens (Human), UniProt Q96RI1). In words: FXR ligand binding assay (LanthaScreen FRET).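 For all read-outs here: TR-FRET coactivator recruitment: ligand-induced binding of fluorescein-labelled SRC2-2 peptide to GST-tagged FXR LBD detected via Tb anti-GST antibody, serial compound dilutions, 3-parameter logistic fit.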 Conditions: for Emax: read-out: % Efficacy.
Test [2] concerns the target human Farnesoid X receptor ligand-binding domain/Gal4 DNA binding domain chimera (Homo sapiens (Human), UniProt Q96RI1). The test can be described thus: Cell-based FXR beta-lactamase reporter assay (FXR-UAS-bla HEK 293T cells). The settings on record: for Emax: HEK-293T, read-out: % Efficacy; for EC50: read-out: FXR pEC50 (converted). As for the experimental part:
FXR activation was measured using a cell line and procedure obtained from Life Technologies (Cat #K1691). FXR-UAS-bla HEK 293T cells contain a human Farnesoid X receptor ligand-binding domain/Gal4 DNA binding domain chimera stably integrated into the CellSensor® UAS-bla HEK 293T cell line. The CellSensor® UAS-bla HEK 293T contains a beta-lactamase reporter gene under control of a UAS response element stably integrated into HEK 293T cells. Activation of FXR by bound ligands results in transcriptional activation of the beta-lactamase reporter gene, which is detected via assay of beta-lactamase activity. Cells are harvested and diluted into assay medium containing phenol red-free DMEM supplemented with 2% Charcoal-stripped FBS, pyruvate, non-essential amino acids. Cells are then transferred to a 384 well assay plate. Test compounds are dissolved in DMSO and a 3-fold serial dilution series is generated, then further diluted into assay medium. […] A FRET-based […] is loaded into cells as its acetomethoxy ester. Intracellular esterases liberate free CCF4, a cephalosporin core linking 7-hydroxycoumarin to fluorescein. In the presence of beta-lactamase activity produced in the presence of FXR agonists, cleavage of CCF4 spatially separates the two dyes and disrupts FRET, so that exciting the coumarin at 409 nm now produces a blue fluorescence signal at 447 nm. The change in FRET signal is plotted against the test compound concentration and fit to a 3-parameter logistical equation.
For orientation: A reporter such as luciferase makes a cellular process visible.

Setting [3] is: cellular FXR beta-lactamase reporter assay, -log EC50.
The mark [4] stands for this setting: FXR ligand binding assay, -log EC50.

Sequence of human Farnesoid X receptor ligand-binding domain/Gal4 DNA binding domain chimera (Q96RI1 262-486, stated change not applied): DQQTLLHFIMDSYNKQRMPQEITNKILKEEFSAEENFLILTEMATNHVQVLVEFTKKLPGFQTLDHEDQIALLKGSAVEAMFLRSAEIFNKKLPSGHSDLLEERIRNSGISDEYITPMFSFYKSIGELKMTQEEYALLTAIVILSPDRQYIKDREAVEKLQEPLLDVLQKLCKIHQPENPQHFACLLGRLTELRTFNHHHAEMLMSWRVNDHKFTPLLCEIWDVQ
Sequence of ligand binding domain of human FXR (Q96RI1 262-486): as the sequence (Q96RI1 262-486, stated change not applied) above

Take `O=C(O)c1ncc(N2[C@@H]3CC[C@H]2C[C@@H](OC(=O)c2c(-c4c(Cl)cccc4Cl)noc2C2CC2)C3)cn1` [Compound I-54, 5-[(1R,3R,5S)-3-[5-Cyclopropyl-3-(2,6-dichlorophenyl)-1,2-oxazole-4-carbonyloxy]-8-azabicyclo[3.2.1]octan-8-yl]pyrimidine-2-carboxylic Acid]: the Emax in test [1] is 46%; in test [2], 115%. Besides, in test [2] (setting [3]), the EC50 was greater than 20000 nM.

In the case of `CS(=O)(=O)NC(=O)c1ccc(N2[C@@H]3CC[C@H]2C[C@@H](OC(=O)c2c(-c4c(Cl)cccc4Cl)noc2C2CC2)C3)c(Cl)c1` [Compound I-52, (1R,3R,5S)-8-[2-chloro-4-(methanesulfonylcarbamoyl)phenyl]-8-azabicyclo[3.2.1]octan-3-yl 5-cyclopropyl-3-(2,6-dichlorophenyl)-1,2-oxazole-4-carboxylate], the results for the Emax in test [1] and in test [2] were 110% and 109%, respectively. Besides, the EC50 in test [2] (setting [3]) is 15.8 nM.

For `Cc1cc(C(=O)O)cc2sc(N3[C@@H]4CC[C@H]3C[C@@H](OC(=O)c3c(-c5ccccc5C(F)(F)F)noc3C3CC3)C4)nc12` [Compound I-61, 2-[(1R,3R,5S)-3-{5-cyclopropyl-3-[2-(trifluoromethyl)phenyl]-1,2-oxazole-4-carbonyloxy}-8-azabicyclo[3.2.1]octan-8-yl]-4-methyl-1,3-benzothiazole-6-carboxylic Acid], in test [1] (setting [4]), the “FXR pEC50” value is reported as 7.1. Further, the Emax stood at 139% in test [1] and 102% in test [2]. In addition, in test [2] (setting [3]), the EC50 is 10 nM.

On to `COc1cc2nc(N3[C@@H]4CC[C@H]3C[C@@H](OC(=O)c3c(-c5c(Cl)cccc5Cl)noc3C3CC3)C4)sc2cc1C(=O)O` [Compound I-7, 2-[(1R,3R,5S)-3-[5-cyclopropyl-3-(2,6-dichlorophenyl)-1,2-oxazole-4-carbonyloxy]-8-azabicyclo[3.2.1]octan-8-yl]-5-methoxy-1,3-benzothiazole-6-carboxylic Acid], for which the Emax in test [1] was 125%; in test [2], 110%. In test [2] (setting [3]), the EC50 was 7.94 nM.

Consider `COC12CCC(c3noc(C4CC4)c3C(=O)O[C@@H]3C[C@H]4CC[C@@H](C3)N4c3nc4c(OC(F)(F)F)cc(C(=O)O)cc4s3)(CC1)CC2` [Compound I-58, 2-[(1R,3S,5S)-3-(5-cyclopropyl-3-{4-methoxybicyclo[2.2.2]octan-1-yl}-1,2-oxazole-4-carbonyloxy)-8-azabicyclo[3.2.1]octan-8-yl]-4-(trifluoromethoxy)-1,3-benzothiazole-6-carboxylic Acid], for which the “FXR pEC50” value in test [1] (setting [4]) is recorded as greater than 4.4; in test [2] (setting [3]), greater than 4.5. The “% Efficacy” value in test [1] (FXR ligand binding assay, extent of activation relative to GW4064) was found to be 22%.

On to `O=C(O)c1cc(C(F)(F)F)c2nc(N3[C@@H]4CC[C@H]3C[C@@H](OC(=O)c3c(-c5c(Cl)cccc5Cl)noc3C3CC3)C4)sc2c1` [Compound I-10, 2-[(1R,3R,5S)-3-[5-cyclopropyl-3-(2,6-dichlorophenyl)-1,2-oxazole-4-carbonyloxy]-8-azabicyclo[3.2.1]octan-8-yl]-4-(trifluoromethyl)-1,3-benzothiazole-6-carboxylic Acid], for which the Emax in test [1] was found to be 102%; in test [2] it was 104%. Further, in test [2] (setting [3]), the EC50 is 25.1 nM.

As for `CS(=O)(=O)NC(=O)c1cc(F)c2nc(N3[C@@H]4CC[C@H]3C[C@@H](OC(=O)c3c(-c5c(Cl)cccc5Cl)noc3C3CC3)C4)sc2c1` [Compound I-6, (1R,3R,5S)-8-[4-fluoro-6-(methanesulfonylcarbamoyl)-1,3-benzothiazol-2-yl]-8-azabicyclo[3.2.1]octan-3-yl 5-cyclopropyl-3-(2,6-dichlorophenyl)-1,2-oxazole-4-carboxylate], the Emax in test [1] was found to be 110%; in test [2], 109%. In test [2] (setting [3]), the EC50 was 15.8 nM.

`O=C(O[C@H]1C[C@H]2CC[C@@H](C1)N2c1ccc2c(C(=O)O)noc2c1)c1c(-c2c(Cl)cccc2Cl)noc1C1CC1` [Compound I-29, 6-[(1R,3R,5S)-3-[5-cyclopropyl-3-(2,6-dichlorophenyl)-1,2-oxazole-4-carbonyloxy]-8-azabicyclo[3.2.1]octan-8-yl]-1,2-benzoxazole-3-carboxylic Acid]: the EC50 is 316 nM in test [1] (FXR ligand binding assay, -log EC50, read-out: FXR pEC50 (converted)) and 251 nM in test [2] (setting [3]). Moreover, the Emax in test [1] was found to be 98%; in test [2] it was 124%.

As for `O=C(O)CNC(=O)c1cc(F)c2nc(N3[C@@H]4CC[C@H]3C[C@@H](OC(=O)c3c(-c5c(Cl)cccc5Cl)noc3C3CC3)C4)sc2c1` [Compound I-4, 2-({2-[(1R,3R,5S)-3-[5-cyclopropyl-3-(2,6-dichlorophenyl)-1,2-oxazole-4-carbonyloxy]-8-azabicyclo[3.2.1]octan-8-yl]-4-fluoro-1,3-benzothiazol-6-yl}formamido)acetic Acid], the Emax in test [1] stood at 76%; in test [2], 109%. In addition, the EC50 in test [2] (setting [3]) was 794 nM.

Consider `COc1cc(C(=O)O)cc2sc(N3[C@@H]4CC[C@H]3C[C@@H](OC(=O)c3c(-c5c(F)cccc5F)noc3C3CC3)C4)nc12` [Compound I-17, 2-[(1R,3R,5S)-3-[5-cyclopropyl-3-(2,6-difluorophenyl)-1,2-oxazole-4-carbonyloxy]-8-azabicyclo[3.2.1]octan-8-yl]-4-methoxy-1,3-benzothiazole-6-carboxylic Acid], for which the Emax in test [1] worked out at 44%; in test [2], 112%. The EC50 in test [2] (setting [3]) was 126 nM.

On to `O=C(NCCS(=O)(=O)O)c1cc(F)c2nc(N3[C@@H]4CC[C@H]3C[C@@H](OC(=O)c3c(-c5c(Cl)cccc5Cl)noc3C3CC3)C4)sc2c1` [Compound I-5, 2-({2-[(1R,3R,5S)-3-[5-cyclopropyl-3-(2,6-dichlorophenyl)-1,2-oxazole-4-carbonyloxy]-8-azabicyclo[3.2.1]octan-8-yl]-4-fluoro-1,3-benzothiazol-6-yl}formamido)ethane-1-sulfonic Acid], for which the Emax in test [1] worked out at 77%; in test [2], 72%. In addition, in test [2] (setting [3]), the EC50 was 2510 nM.

In the case of `O=C(O)c1ccc(N2[C@@H]3CC[C@H]2C[C@@H](OC(=O)c2c(-c4c(Cl)cccc4Cl)noc2C2CC2)C3)c(C(F)(F)F)c1` [Compound I-38, 4-[(1R,3R,5S)-3-[5-cyclopropyl-3-(2,6-dichlorophenyl)-1,2-oxazole-4-carbonyloxy]-8-azabicyclo[3.2.1]octan-8-yl]-3-(trifluoromethyl)benzoic acid], the “FXR pEC50” value in test [1] (setting [4]) is 6.6. Moreover, the Emax in test [1] came out at 80%; in test [2] it was 112%. The EC50 in test [2] (setting [3]) is 79.4 nM.

Take `CS(=O)(=O)NC(=O)c1ccc(N2[C@@H]3CC[C@H]2C[C@@H](OC(=O)c2c(-c4c(Cl)cccc4Cl)noc2C2CC2)C3)cc1` [Compound I-44, (1R,3R,5S)-8-[4-(methanesulfonylcarbamoyl)phenyl]-8-azabicyclo[3.2.1]octan-3-yl 5-cyclopropyl-3-(2,6-dichlorophenyl)-1,2-oxazole-4-carboxylate]: the values for the Emax in test [1] and in test [2] were 124% and 117%, respectively. Besides, the EC50 in test [2] (setting [3]) was 6.31 nM.

Take `COc1cc(N2[C@@H]3CC[C@H]2C[C@@H](OC(=O)c2c(-c4c(Cl)cccc4Cl)noc2C2CC2)C3)ccc1C(=O)O` [Compound I-39, 4-[(1R,3R,5S)-3-[5-cyclopropyl-3-(2,6-dichlorophenyl)-1,2-oxazole-4-carbonyloxy]-8-azabicyclo[3.2.1]octan-8-yl]-2-methoxybenzoic acid]: in test [1] (setting [4]), the “FXR pEC50” value is 6.8. The Emax in test [1] amounted to 64%; in test [2], 114%. Moreover, the EC50 in test [2] (setting [3]) is 100 nM.

In the case of `O=C(O)c1ccc(N2[C@@H]3CC[C@H]2C[C@@H](OC(=O)c2c(-c4c(Cl)cccc4Cl)noc2C2CC2)C3)c(Cl)c1` [Compound I-36, 3-chloro-4-[(1R,3R,5S)-3-[5-cyclopropyl-3-(2,6-dichlorophenyl)-1,2-oxazole-4-carbonyloxy]-8-azabicyclo[3.2.1]octan-8-yl]benzoic acid], in test [1] (setting [4]), the “FXR pEC50” value is 7.3. The Emax in test [1] turned out to be 106%; in test [2], 99%. Further, the EC50 in test [2] (setting [3]) is 158 nM.

For `O=C(O)c1cc(OC(F)(F)F)c2nc(N3[C@@H]4CC[C@H]3C[C@@H](OC(=O)c3c(-c5c(Cl)cccc5Cl)noc3C3CC3)C4)sc2c1` [Compound I-9, 2-[(1R,3R,5S)-3-[5-cyclopropyl-3-(2,6-dichlorophenyl)-1,2-oxazole-4-carbonyloxy]-8-azabicyclo[3.2.1]octan-8-yl]-4-(trifluoromethoxy)-1,3-benzothiazole-6-carboxylic Acid], the Emax in test [1] is 136%; in test [2] it was 119%. Besides, in test [2] (setting [3]), the EC50 is 3.16 nM.

With `COc1cc(C(=O)O)cc2sc(N3[C@@H]4CC[C@H]3C[C@@H](OC(=O)c3c(-c5c(Cl)cccc5Cl)noc3C3CC3)C4)nc12` [Compound I-8, 2-[(1R,3R,5S)-3-[5-Cyclopropyl-3-(2,6-dichlorophenyl)-1,2-oxazole-4-carbonyloxy]-8-azabicyclo[3.2.1]octan-8-yl]-4-methoxy-1,3-benzothiazole-6-carboxylic Acid], the values for the Emax in test [1] and in test [2] were 105% and 114%, respectively. Also, in test [2] (setting [3]), the EC50 was 3.98 nM.
